Holding throughout (test): fluorescence light-switch
The test system of assay [1] is poly A poly T (DNA, duplex) AAAAAAAAAAAAAAAAAAAAA/TTTTTTTTTTTTTTTTTTTTT
Conditions: 50 mM NaCl; 5 mM Tris-HCl pH 7.0, 1% DMSO, RT; 10 μM complex, 50 μM bp DNA; emission near 600 nm.

Assay [2] concerns poly AT (DNA, duplex) ATATATATATATATATATAT
Conditions: 50 mM NaCl, 10 μM complex, 50 μM bp DNA.

Assay [3] deals with poly T (DNA, single strand) TTTTTTTTTTTTTTTTTTTTT
As to conditions: 50 mM NaCl; 5 mM Tris-HCl pH 7.0, 1% DMSO, RT; 10 μM complex, 50 μM DNA; emission near 600 nm.

`CN(C)Cc1[c-]cccc1.[Pt+2].c1ccc2cc3nc4c5cccnc5c5ncccc5c4nc3cc2c1`: the binding entry in assay [1] was “yes”; in assay [2] (5 mM Tris-HCl pH 7.0, 1% DMSO, RT, excimer emission at 599 nm), “yes”; in assay [3] it was “yes”.

`CN(C)Cc1[c-]cccc1.[Pt+2].c1ccc2nc3c4cccnc4c4ncccc4c3nc2c1`: the binding entry in assay [2] (5 mM Tris-HCl pH 7.0, RT, emission at 431 nm) is reported as “yes”. For `CN(C)Cc1[c-]cccc1.[Pt+2].c1cnc2c(c1)c1nccnc1c1cccnc12`, in assay [2] (5 mM Tris-HCl pH 7.0, RT, emission at 438 nm), the binding entry is on record as “yes”.
